Laboratory results from patent US20150018376A1, “PYRIMIDIN-4-YL)OXY)-1H-INDOLE-1-CARBOXAMIDE DERIVATIVES AND USE THEREOF” (NOVARTIS AG, priority 2013, published 2015).

How the values were obtained:
KDR (GST-KDR(807-1356)) = target: T1, KDR (GST-KDR(807-1356)) (Homo sapiens, UniProt P35968); assay: KDR protein kinase activity, LanthaScreen TR-FRET; assay type: biochemical; details: 2 μM ATP, 1 hour incubation
T1 construct: GST-KDR(807-1356), internally produced recombinant protein; GST (N); made in house
Experimental: A generic assay set-up has been run at room temperature on a liquid handling robot. To the assay plates containing 50 nL compound or control solutions, 4.5 μL of ATP mix (20 mM Tris-HCl pH7.4, 1 mM DTT, 0.025% Tween20, 0.01 mM Na3VO4, 10 mM MgCl2, 1 mM MnCl2, and 4 μM ATP) were added per well. Subsequently, 4.5 μL of enzyme-substrate mix (20 mM Tris-HCl pH7.4, 1 mM DTT, 0.025% Tween20, 0.01 mM Na3VO4, 10 mM MgCl2, 1 mM MnCl2, 0.5% BSA, 100 nM fluorescein labeled poly(EAY), and 0.76 nM KDR (GST-KDR(807-1356), internally produced recombinant protein) were added.
The final reaction volume is 9.05 μL with final reagent concentrations of 20 mM Tris-HCl pH7.4, 1 mM DTT, 0.025% Tween20, 0.01 mM Na3VO4, 10 mM MgCl2, 1 mM MnCl2, including a generic concentration of 2 μM ATP, 50 nM of substrate fluorescein labeled poly(EAY), and 0.38 nM enzyme.
After 1 hour of incubation the kinase reactions have been stopped by the addition of 4.5 μL of stop solution (20 mM Tris-HCl pH7.4, 1 mM DTT, 0.025% Tween20, 0.01 mM Na3VO4, 50 mM EDTA) immediately followed by 4.5 μL of antibody solution (20 mM Tris-HCl pH7.4, 1 mM DTT, 0.025% Tween20, 0.01 mM Na3VO4, 1.72 μg/ml Tb-PY20).
After an incubation time of 45 min in the dark, the plates were transferred into a fluorescence reader and counted in time resolved fluorescence mode (settings according to the reagent supplier's recommendation). The effect of compound on the enzymatic activity was obtained from end point measurement.

[1] = test system: hepatocytes from rat, rabbit, monkey, and human; assay: Hepatocyte viability during incubation, all species summarised; assay type: cell-based; details: 10 μmol/L, range over four species; initially 70-93%; controls without compound 4-21%
Experimental: (§1) After thawing the cryopreserved hepatocytes, the viable cells were enriched by centrifugation in HepatoZYME cell culture medium (Gibco Invitrogen). For this purpose, the cells were added to 45 mL of a 37° C. warm HepatoZYME, and centrifuged at room temperature, at 50 g for 5 min. The supernatant containing dead cells was discarded and the cells in the pellet were re-suspended in HepatoZYME.
The viability of the re-suspended hepatocytes was determined by a Guava EasyCyte™ Mini system using the ViaCount® assay as described by the supplier (Guava Technologies, Hayward, Calif., USA). After cell counting, the cell concentration was adjusted to approx. 1·10^6 viable cells/mL by adding HepatoZYME. Subsequently, the incubations were started by adding [^14C] N-(1-methyl-5-(trifluoromethyl)-1H-pyrazol-3-yl)-5-(6-((methylamino)methyl)pyrimidin-4-yloxy)-1H-indole-1-carboxamide and non-labeled N-(1-methyl-5-(trifluoromethyl)-1H-pyrazol-3-yl)-5-(6-((methylamino)methyl)pyrimidin-4-yloxy)-1H-indole-1-carboxamide as a solution in DMSO. The final concentration of DMSO in the incubations was 0.1% (v/v). […]
The incubations were performed at 37° C. under a humidified atmosphere of 95% relative humidity and 5% CO2 in a Heraeus incubator/cytoperm (Kendro Laboratory Products AG, Zürich, Switzerland). […] The viability of the hepatocytes was determined after 6 h (end of incubation).

[2] = Control incubations in the absence of hepatocytes or liver microsomes (chemical stability); assay type: in vitro ADME; details: 10 μmol/L in HepatoZYME without hepatocytes (6 h) or buffer without microsomes (60 min), 37° C.
Experimental: (§2) To check the chemical stability of [^14C] N-(1-methyl-5-(trifluoromethyl)-1H-pyrazol-3-yl)-5-(6-((methylamino)methyl)pyrimidin-4-yloxy)-1H-indole-1-carboxamide under the incubation conditions, the compound was incubated at a concentration of 10 μmol/L in HepatoZYME without hepatocytes. A second series of control incubations was performed with hepatocytes of all species in the absence of the test compound to investigate the effect of the latter on the viability. These experiments were performed in a 12×6 mL MultiWell™ plate (Art. 393503, Beckton Dickinson).
Microsomal incubations for metabolite profiles were performed at 10 μmol/L of [^14C] N-(1-methyl-5-(trifluoromethyl)-1H-pyrazol-3-yl)-5-(6-((methylamino)methyl)pyrimidin-4-yloxy)-1H-indole-1-carboxamide (approx. 50% radiolabeled) with one time point investigated (60 min). Incubations were performed at 37° C. in 0.1 mol/L sodium phosphate buffer pH 7.4. The final concentrations in the incubation cocktail were: 4 mmol/L UDPGA (Sigma-Aldrich), 1 mmol/L β-NADPH (Sigma-Aldrich), 5 mmol/L MgCl2, and 60 μg alamethicin (Sigma-Aldrich) per mg microsomal protein. The system was left to incubate for 10 min before adding the test compound to allow the pore formation with the alamethicin. The metabolic reaction was started by the addition of [^14C] […]

human hepatocytes = assay: Hepatocyte viability during incubation (ViaCount assay); assay type: cell-based; details: 10 μmol/L, percent viable cells relative to total cells
Experimental: as §1
(§3) The viability of the re-suspended hepatocytes was determined by a Guava EasyCyte™ Mini system using the ViaCount® assay as described by the supplier (Guava Technologies, Hayward, Calif., USA). After cell counting, the cell concentration was adjusted to approx. 1·10^6 viable cells/mL by adding HepatoZYME. Subsequently, the incubations were started by adding [^14C] N-(1-methyl-5-(trifluoromethyl)-1H-pyrazol-3-yl)-5-(6-((methylamino)methyl)pyrimidin-4-yloxy)-1H-indole-1-carboxamide and non-labeled N-(1-methyl-5-(trifluoromethyl)-1H-pyrazol-3-yl)-5-(6-((methylamino)methyl)pyrimidin-4-yloxy)-1H-indole-1-carboxamide as a solution in DMSO. The final concentration of DMSO in the incubations was 0.1% (v/v).
as §2
(§4) The incubations were performed at 37° C. under a humidified atmosphere of 95% relative humidity and 5% CO2 in a Heraeus incubator/cytoperm (Kendro Laboratory Products AG, Zürich, Switzerland). During the incubations, the plates and flasks were shaken at 300 strokes per minute. The viability of the hepatocytes was determined after 6 h (end of incubation).

rat hepatocytes = assay: as above; assay type: cell-based; details: 10 μmol/L, percent viable cells relative to total cells
Experimental: as §1, §3, §2, §4

monkey hepatocytes = assay: as above; assay type: cell-based; details: 10 μmol/L, percent viable cells relative to total cells
Experimental: as §1, §3, §2, §4

rabbit hepatocytes = assay: as above; assay type: cell-based; details: 10 μmol/L, percent viable cells relative to total cells
Experimental: as §1, §3, §2, §4

[3] = Stability of crystalline form; assay type: physicochemical; details: HCl salt
Excerpt: Crystalline form B of the HCl salt of N-(1-methyl-5-(trifluoromethyl)-1H-pyrazol-3-yl)-5-((6-((methylamino)methyl)pyrimidin-4-yl)oxy)-1H-indole-1-carboxamide was obtained using the same procedure as in Example 5 above.

T1 sequence (P35968 807-1356): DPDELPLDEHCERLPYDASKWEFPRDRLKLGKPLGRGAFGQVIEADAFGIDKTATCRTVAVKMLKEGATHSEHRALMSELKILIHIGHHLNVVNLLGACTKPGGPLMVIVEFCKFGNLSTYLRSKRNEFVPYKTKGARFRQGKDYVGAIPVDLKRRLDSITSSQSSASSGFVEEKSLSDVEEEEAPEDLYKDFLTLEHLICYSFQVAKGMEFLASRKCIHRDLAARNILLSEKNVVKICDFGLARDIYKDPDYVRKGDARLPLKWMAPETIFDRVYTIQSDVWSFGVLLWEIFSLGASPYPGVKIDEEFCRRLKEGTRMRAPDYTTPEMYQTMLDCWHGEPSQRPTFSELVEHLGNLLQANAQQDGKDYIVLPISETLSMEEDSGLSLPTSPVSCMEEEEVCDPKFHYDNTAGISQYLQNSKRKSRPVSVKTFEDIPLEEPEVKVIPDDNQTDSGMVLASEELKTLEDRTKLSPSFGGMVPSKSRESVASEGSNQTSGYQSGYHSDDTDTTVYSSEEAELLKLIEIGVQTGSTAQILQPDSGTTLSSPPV

Question: With `Cn1nc(NC(=O)n2ccc3cc(Oc4cc(CN)ncn4)ccc32)cc1C(F)(F)F` [Example 3, 5-(6-(aminomethyl)pyrimidin-4-yloxy)-N-(1-methyl-5-(trifluoromethyl)-1H-pyrazol-3-yl)-1H-indole-1-carboxamide] as the compound, how does the IC50 (KDR (GST-KDR(807-1356))) read?
Answer: < 0.001 µM

Question: What does the source list for `CNCc1cc(Oc2ccc3c(ccn3C(=O)Nc3cc(C(F)(F)F)n(C)n3)c2)ncn1` [[^14C] N-(1-methyl-5-(trifluoromethyl)-1H-pyrazol-3-yl)-5-(6-((methylamino)methyl)pyrimidin-4-yloxy)-1H-indole-1-carboxamide]?
Answer: viability of the hepatocytes after 6 hours [1]: 8-42%; chemical stability in the incubation media [2]: confirmed the stability of the compound; Viability at 6 h (human hepatocytes): 25%; Viability at 6 h (rat hepatocytes): 22%; Viability at 6 h (monkey hepatocytes): 42%; Viability at 6 h (rabbit hepatocytes): 8%

Question: For `Cn1nc(NC(=O)n2ccc3cc(Oc4cc(/C=[N+](/C)[O-])ncn4)ccc32)cc1C(F)(F)F` [Example 1, (Z)-N-((6-((1-((1-methyl-5-(trifluoromethyl)-1H-pyrazol-3-yl)carbamoyl)-1H-indol-5-yl)oxy)pyrimidin-4-yl)methylene)methanamine oxide], which IC50 (KDR (GST-KDR(807-1356))) is on record?
Answer: < 0.001 µM

Question: For `Cn1nc(NC(=O)n2ccc3cc(Oc4cc(C(N)=O)ncn4)ccc32)cc1C(F)(F)F` [Example 2, 5-((6-Carbamoylpyrimidin-4-yl)oxy)-N-(1-methyl-5-(trifluoromethyl)-1H-pyrazol-3-yl)-1H-indole-1-carboxamide], which IC50 (KDR (GST-KDR(807-1356))) is on record?
Answer: 0.02 µM

Question: For `CNCc1cc(Oc2ccc3c(ccn3C(=O)Nc3cc(C(F)(F)F)n(C)n3)c2)ncn1` [Form B, N-(1-methyl-5-(trifluoromethyl)-1H-pyrazol-3-yl)-5-((6-((methylamino)methyl)pyrimidin-4-yl)oxy)-1H-indole-1-carboxamide], which “stability of the crystalline form” value [3] is on record?
Answer: transient form that converts back to Form A
